Read-outs that look alike come from different tables or passages of the source.

The subject of one test is PDE9. The conditions noted are these: cited from earlier work.
The test system of a further test is BuChE. Also on record: method as in PMID 31250747. The conditions noted are these: Figure 1; cited from earlier work.
The test system of a further test is AChE. Also on record: method as in PMID 31250747. The conditions noted are these: Figure 1; cited from earlier work.
The next test relates to HDAC6. More on the design: method as in PMID 31441641. The conditions noted are these: Figure 1; cited from earlier work.
Test [1] addresses T1, PDE9 (catalytic domain of PDE9A2) (Homo sapiens, UniProt O76083).
T1 construct: PDE9 recombinant catalytic domain (amino acid 181–506); made in house; host or cells: E. coli BL21 (Codonplus)
The test can be described thus: Enzymatic assay against PDE9 (3H-cGMP hydrolysis, scintillation counting). The format is biochemical. As to conditions: 0.25 h, read-out: Inhibition ratio against PDE9; for inhibition at 0.01 µM: at a concentration of 0.01 μM; for inhibition at 0.1 µM: at a concentration of 0.1 μM. The method, then:
In brief, E. coli strain BL21 (Codonplus), which carrying with recombinant pET-PDE9A2 plasmid, was grown in LB medium (containing 100 μg/mL ampicillin and 0.4% glucose) at 37 °C until an OD600 achieved 0.6–0.8. Then, the temperature was turned down to 15 °C, and 0.1 mM iso-propyl-b-D-thiogalactopyranoside was added to LB medium to induce the expression of PDE9A2 protein. Bacteria were induced for 20 h and collected for purified PDE9A2 recombinant protein by a Ni-NTA column (Qiagen, Venlo, The Netherlands).
As for the enzymatic assays, ^3H-cGMP (20,000–30,000 cpm, GE Healthcare), the substrate for enzymatic assays against PDE9A2, were diluted in an assay buffer (containing 50 mM Tris-HCl (pH 8.0), 10 mM MgCl2, and 1 mM DTT). And then, the substrate ^3H-cGMP, catalytic domain of PDE9A2, and different concentrations of tested compounds were incubated at room temperature for 15 min. To terminate the reaction, 0.2 M ZnSO4 and 0.2 N Ba(OH)2 were added to the mixture, leaving unreacted ^3H-cGMP in the supernatant. […] Each compound was measured at a minimum of eight concentrations for the IC50 calculation and repeated at least three times.
4.Enzymatic assays against PDE9
The assay buffer contains 50 mM Tris-HCl (pH 8.0), 10 mM MgCl2 or 4 mM MnCl2, 1 mM DTT, and 10-20 nM 3H-cGMP (15000−30000 cpm/assay, CPM control). The reaction was carried out at room temperature for 15 min and then terminated by addition of 0.2 M ZnSO4. The reaction product 3H-GMP was precipitated out by […], whereas unreacted 3H-cGMP remained in the supernatant. The radioactivity in the supernatant was measured in 2.5 […]
(CPMenzyme). For the measurement of IC50 of inhibitors, at least seven concentrations of inhibitors were used in the presence of 3H-cGMP. The enzyme concentration in a range of 10− 100 ng/mL, which hydrolyzed 50- 70% of the substrate, was chosen for each inhibitory assay. The radioactivity was recorded as CPMinhibitor. The IC50 values for PDE9 were calculated using a nonlinear regression analysis.
Inhibition = […] × 100%

Test [2] in a line: Antioxidant activity, ORAC-FL method. The conditions noted are these: Trolox as standard. The method, then: The modified Oxygen Radical Absorbance Capacity Fluorescein (ORAC-FL) method was used for antioxidant activity test. In brief, the mixture of test compounds (20 μL) and fluorescein (120 μL, final concentration of 150 nM) was added into a black 96-well plate and incubated for 15 min at 37 °C. Then, 60 μL of 2,2′-azobis(2-amidinopropane) dihydrochloride (AAPH) solution (12 mM) was added rapidly to induce the reaction. The fluorescence with an excitation wavelength of 485 nm and emission at 535 nm was measured in Spectrafluor Plus plate reader (Tecan, Crailsheim, Germany) every minute for 4 h. Integration of the area under the curve (AUC) was […] 1 to 8 μM Trolox was used as a standard. Each compound was tested at 1–10 μM at least in three independent assays. The ORAC-FL values of each compound were calculated according to Equation (1) and expressed as Trolox equivalents.(1) ORAC-FL value=AUCsample−AUCblank/AUCTrolox−AUCblank×ConcentrationTrolox/Concentrationsample

Setting [3] is: Figure 1, current PDE9 inhibitors.

T1 sequence (O76083 241-566): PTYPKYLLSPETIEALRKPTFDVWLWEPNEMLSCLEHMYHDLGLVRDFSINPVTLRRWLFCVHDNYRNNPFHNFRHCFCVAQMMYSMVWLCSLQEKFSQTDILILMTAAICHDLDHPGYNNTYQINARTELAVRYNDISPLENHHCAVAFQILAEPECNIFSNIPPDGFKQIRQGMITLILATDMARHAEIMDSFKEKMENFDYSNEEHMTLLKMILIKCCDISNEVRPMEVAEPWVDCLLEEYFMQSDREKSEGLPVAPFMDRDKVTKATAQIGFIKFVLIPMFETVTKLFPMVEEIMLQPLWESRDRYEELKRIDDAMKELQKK

What is called IC50 is the midpoint of a concentration-inhibition curve. Consider `O=c1[nH]c(Cc2ccccn2)nc2c1cnn2C1CCOCC1` [Compound 2, Osoresnontrine], for which, in the test with PDE9 (setting [3]), the IC50 was 65 nM.
In the case of `COc1cc(CNc2nc3c(cnn3C3CCCC3)c(=O)[nH]2)ccc1OC(=O)N(C)C` [Compound 4], the concentration for half-maximal inhibition (IC50) was 17 nM in the test with PDE9 (setting [3]) and 960 nM with BuChE.
Consider `O=c1[nH]c(COCCC2CCN(Cc3ccccc3)CC2)nc2c1cnn2C1CCCC1` [Compound 5], for which the IC50 in the test with PDE9 (setting [3]) is 285 nM; with AChE, 223 nM.
With `C[C@@H]1CN(Cc2ccc(C(=O)NO)cc2)C[C@H]1c1nc2c(cnn2C2CCCC2)c(=O)[nH]1` [Compound 6], the IC50 is 107 nM in the test with PDE9 (setting [3]) and 40 nM in the test with HDAC6.
With `CC(Cc1n[nH]c2ccccc12)Nc1nc2c(cnn2C2CCCC2)c(=O)[nH]1` (stereo not drawn) [Compound 17g, 6-((1-(1H-indazol-3-yl)propan-2-yl)amino)-1-cyclopentyl-1,5-dihydro-4H-pyrazolo[3,4-d]pyrimidin-4-one], in test [1], the inhibition at 0.01 µM stood at 70% and the inhibition at 0.1 µM worked out at 82%. Also, in test [2], the ORAC is on record as 0.17 ± 0.004 μmol of Trolox equiv/μmol tested compound.
For `COc1ccc2[nH]nc(CC(C)Nc3nc4c(cnn4C4CCCC4)c(=O)[nH]3)c2c1` (stereo not drawn) [Compound 17h, 1-cyclopentyl-6-((1-(5-methoxy-1H-indazol-3-yl)propan-2-yl)amino)-1,5-dihydro-4H-pyrazolo[3,4-d]pyrimidin-4-one], in test [1], the inhibition at 0.01 µM came to 65% and the inhibition at 0.1 µM worked out at 69%. Also, the ORAC in test [2] is reported as 0.22 ± 0.12 μmol of Trolox equiv/μmol tested compound.
For the compound `C[C@@H](NCc1c[nH]c2ccccc12)c1nc2c(cnn2C2CCCC2)c(=O)[nH]1` [Compound 18a, (R)-6-(1-(((1H-indol-3-yl)methyl)amino)ethyl)-1-cyclopentyl-1,5-dihydro-4H-pyrazolo[3,4-d]pyrimidin-4-one], in test [1], the inhibition at 0.01 µM is 46% and the inhibition at 0.1 µM was roughly 50%. The ORAC in test [2] was 0.60 ± 0.06 μmol of Trolox equiv/μmol tested compound.
`C[C@@H](NCc1c[nH]c2ccc(F)cc12)c1nc2c(cnn2C2CCCC2)c(=O)[nH]1` [Compound 18b, (R)-1-cyclopentyl-6-(1-(((5-fluoro-1H-indol-3-yl)methyl)amino)ethyl)-1,5-dihydro-4H-pyrazolo[3,4-d]pyrimidin-4-one]: in test [1], the inhibition at 0.01 µM amounted to 61% and the inhibition at 0.1 µM is 76%. The ORAC in test [2] is recorded as 0.88 ± 0.08 μmol of Trolox equiv/μmol tested compound.
Regarding `C[C@@H](NCc1n[nH]c2ccccc12)c1nc2c(cnn2C2CCCC2)c(=O)[nH]1` [Compound 18e, (R)-6-(1-(((1H-indazol-3-yl)methyl)amino)ethyl)-1-cyclopentyl-1,5-dihydro-4H-pyrazolo[3,4-d]pyrimidin-4-one], in test [1], the inhibition at 0.1 µM was roughly 50%. Moreover, in test [2], the ORAC was 0.15 ± 0.03 μmol of Trolox equiv/μmol tested compound.
For `COc1ccc2[nH]nc(CN[C@H](C)c3nc4c(cnn4C4CCCC4)c(=O)[nH]3)c2c1` [Compound 18f, (R)-1-cyclopentyl-6-(1-(((5-methoxy-1H-indazol-3-yl)methyl)amino)ethyl)-1,5-dihydro-4H-pyrazolo[3,4-d]pyrimidin-4-one], in test [1], the inhibition at 0.1 µM was less than 30%. In test [2], the ORAC was 0.24 ± 0.02 μmol of Trolox equiv/μmol tested compound.
`CC(Nc1nc2c(cnn2C2CCCC2)c(=O)[nH]1)c1ccc(Cl)cc1` (stereo not drawn) [Compound C33]: the IC50 in the test with PDE9 (previously reported) was 16 nM.

The record behind these values is paper PMC11852235, “Discovery of Effective Inhibitors Against Phosphodiesterase 9, a Potential Therapeutic Target of Alzheimer’s Disease with Antioxidant Capacities” (Antioxidants, 2025).
